{"source": "patent US8257931B2", "about": "(President and Fellows of Harvard College, priority 2005, dated 2012)", "key": {"[1]": {"molecular_target": "eIF4E (Mus musculus, UniProt P63073)", "sequence (P63073 whole entry)": "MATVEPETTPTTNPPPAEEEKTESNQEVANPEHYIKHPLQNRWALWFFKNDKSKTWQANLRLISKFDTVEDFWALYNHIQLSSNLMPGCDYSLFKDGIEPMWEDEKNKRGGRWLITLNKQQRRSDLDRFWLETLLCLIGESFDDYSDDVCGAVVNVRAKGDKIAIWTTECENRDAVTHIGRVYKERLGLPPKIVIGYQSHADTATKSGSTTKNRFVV", "assay": "FP assay competing with fluorogenic eIF4G-derived peptide (KRYDREFLLGF)", "assay_type": "binding", "settings": "for binding affinity / potency in FP assay compared with hit compound 1: relative to hit compound 1", "description": "The values indicate the average concentration needed to inhibit 50% of cell proliferation. […] A dual luciferase reporter mRNA was translated for 90 minutes at 30° C. in RedNova reticulocyte lysate (Novagen) in the presence of increasing concentrations of the compound. […] (purple) activity was measured and normalized against an untreated control reaction. The m^7GDP and emetine were used as the positive and negative controls, respectively.\nDisplacement of Nα-fluorescein tagged eIF4G-derived peptide by a competing ligand causes a large decrease in fluorescence polarization. The non-tagged version of the same eIF4G-derived peptide and DMSO were used as positive and negative control, respectively."}, "[2]": {"test_system": "A549 and HT29 cell lines", "assay": "Alamar Blue growth inhibition, statements covering both A549 and HT29", "assay_type": "cell-based, human", "settings": "for GI50: Homo sapiens", "description": "(§1) Adherent human solid tumor cells were plated and maintained for 3 days in the presence of increasing concentration of the compounds, and cell proliferation was measured by alamar blue assay, where 10% of commercially available solution is added to the cell medium and measure fluorescence in 96-well plates at wavelength of 530 nm excitation and 590 nm emission. The data calculations were carried out as previously described.\n(§2) Compounds were further tested for cell growth inhibition in a human lung cancer cell line (A549) and conlon cancer cell line (HT29). The Alamar Blue assay, which specifically measures the inhibition of cell proliferation, was used to assess the GI50's of the compounds."}, "[3]": {"test_system": "cap-dependent translation", "assay": "In vitro translation of dual luciferase reporter in rabbit reticulocyte lysate, cap-dependent Renilla luciferase", "assay_type": "biochemical", "description": "(§3) To determine the relative effects of the compound on cap dependent and independent translation, we utilized a bicistronic mRNA construct containing the gene for Renilla luciferase under the control of the cap and the message for firefly luciferase under the control of the cricket paralysis virus IRES (FIG. 2A). […] A dicistronic reporter construct containing the Renilla reniformis luciferase sequence after the 5′ UTR followed by the CrPV IRES and the firefly luciferase sequence was used to build a reporter construct plasmid. The reporter construct plasmid was linearized with BamHI and transcribed in vitro with an ARCA cap using the mMessage Machine T7 Ultra Kit (Ambion). In vitro translation reactions were carried out using Red Nova reticulocyte lysate (Novagen) with 2 mM magnesium acetate and […] potassium acetate, incubated at 30 degrees C. for 90 minutes. Translation of reporter genes was measured using the Dual-Glo luciferase assay (Promega) in a Wallac Victor^2 plate reader.\n(§4) In addition to structurally characterizing the binding of our hit compounds, biological activities of the compounds was evaluated. […] To test this hypothesis in vitro, a translation assay in rabbit reticulocyte lysate was carried out. A dicistronic reporter construct containing a cap-dependent Renilla luciferase and a cricket paralysis virus IRES driven firefly luciferase was utilized to measure the relative affect of a compound on both translation mechanisms.\n(§5) A functional cell free assay determined the relative effects of the compounds on cap- and IRES-dependent translations. This assay involved the in vitro translation of bicistronic mRNA reporter construct encoding for renilla luciferase in a cap-dependent and for firefly luciferase in a cap independent manner, the later driven by cricket paralysis virus IRES."}, "[4]": {"test_system": "IRES driven translation", "assay": "In vitro translation of dual luciferase reporter in rabbit reticulocyte lysate, CrPV IRES driven firefly luciferase", "assay_type": "biochemical", "description": "as §3, §4, §5"}, "[5]": {"test_system": "Jurkat cells", "assay": "Western blotting of Jurkat cell extracts for protein levels", "settings": "8 hours", "protocol": "(§7) For analysis of cellular protein and mRNA levels, Jurkat cells were grown for 8 hours in the presence of the compound. Extracts for Western blotting were prepared from half of the cells by multiple freeze-thaw cycles. β-actin, Bcl-xL, and c-myc were detected using polyclonal antibodies (Cell Signaling). For the remaining cells the PARIS kit (Ambion) was used to isolate total nuclear and total cytoplasmic RNA fractions. The integrity of the fractionation was confirmed by agarose gel electrophoresis (as prescribed by Ambion). Contaminating DNA was removed using the DNA-free kit (Ambion), and cDNA was prepared using MMLV reverse transcriptase (Promega). The relative abundance of the c-myc and Bcl-xL messages compared to β-actin was determined by real-time PCR with validated QuantiTec probes and the QuantiTec SYBR Green Kit (Qiagen), using a thermocycler from Applied Biosystems."}, "[6]": {"test_system": "human lung cancer cell line (A549)", "assay": "A549 cell growth inhibition, Alamar Blue assay", "assay_type": "cell-based", "description": "as §1, §2"}, "[7]": {"test_system": "Jurkat cells", "assay": "Apoptosis in Jurkat cells: sub-G1 DNA content by FACS, Hoechst 33342 nuclear morphology", "assay_type": "cell-based, human", "description": "(§6) Such results can result from pro-apoptotic and/or anti-proliferative activity in these cell lines. Cell viability was measured by treatment of Jurkat cells with compound for 24 hours and determination of intracellular ATP using the CellTiterGlo assay (Promega). […] After fixation and staining with PI cellular DNA content was determined by FACS analysis in a FACSCalibur machine (Beckton Dickinson). Nuclear morphology after 24 hour EG1-1 treatment was visualized by staining of cells with Hoechst 33342 dye and fluorescence microscopy."}, "[8]": {"test_system": "Jurkat cells", "assay": "Jurkat cell viability by intracellular ATP (CellTiterGlo)", "assay_type": "cell-based, human", "settings": "24 hours", "description": "as §6"}, "[9]": {"test_system": "A549 cells", "assay": "A549 cytotoxicity, CellTiter-Glo luminescence assay", "settings": "A549, 16 hours, concentration range of anti-proliferative activity", "protocol": "To determine if this was simply due to toxicity, cell viability after compound treatment was determined using a luminescence assay (FIG. 8B)."}, "[10]": {"test_system": "A549 lung cancer cells", "assay": "A549 proliferation, sulforhodamine B (SRB) assay", "assay_type": "cell-based, human", "description": "FIG. 28 is a graph showing the results of a cell proliferation assay. A549 cells, which are human lung cancer cells, are grown in plates for five days in medium containing 5% FCS and compound. The number of cells is quantified by staining with sulforhodamine B."}, "[11]": {"test_system": "Jurkat cells", "assay": "Real-time PCR of c-myc and Bcl-xL mRNA relative to β-actin in Jurkat cells", "settings": "8 hrs", "protocol": "as §7"}, "[12]": {"test_system": "HT29 colon cancer cells", "assay": "HT29 cell growth, Alamar Blue assay", "assay_type": "cell-based", "settings": "Homo sapiens, HT-29; for GI50: Alamar Blue assay", "description": "as §1\nMed. Chem. Lett. 14: 2547-50, 2004. […] .\nas §2"}, "[13]": {"molecular_target": "T1, eIF4E/eIF4G interaction (Mus musculus, UniProt P63073)", "T1 construct": "made in house; host or cells: E. coli", "T1 sequence (P63073 whole entry)": "as above", "assay": "Fluorescence polarization assay: binding of fluorescein-labeled eIF4G peptide to eIF4E", "design": "species or system murine", "settings": "Table 1 of b280; triplicate, SD<±10%; read-out: IC50 (μM) (4E/4G FP)", "description": "We adapted this assay to a microwell plate format and used it to screen the 16,000 compound Chembridge DiverSet E library. […] For screening and subsequent peptide binding assays measurements of fluorescence polarization were made using an LJL Analyst plate reader. For the screening assay a solution containing approximately 5 μM meIF4E, 60 nM labeled peptide, 0.05% bovine γ-globulin, and 2 mM DTT in a buffer composed of 50 mM sodium phosphate and 50 mM potassium chloride at pH 6.5 was used. […] The curve fitting for estimation of binding constants used equations derived by Roehrl et al.^22 Measurements of fluorescence polarization and anisotropy were made in black 384-well plates (Corning) using an Analyst plate reader (LJL Biosystems) Compounds were transferred to plates during the screening using a custom-built Seiko pin transfer robot at the Institute for Chemistry and Cell Biology (ICCB) at Harvard Medical School.\nA fluorescence polarization (FP) assay was developed to measure binding of a peptide containing the conserved eIF4E-binding motif to eIF4E.\nThe assay was adapted to a microwell plate format and used to screen a number of libraries comprised of small molecule libraries for potential eIF4E/eIF4G interaction inhibitors."}, "[14]": {"settings": "HT29 and A549, both, read-out: GI50 in both cell lines"}}, "note": "Entries after “also recorded” stand apart in the source; their conditions may differ. Where two headings read alike, the source gives them in different places.", "data": [{"smiles": "O=C(O)C(Cc1ccccc1[N+](=O)[O-])=NNc1nc(-c2ccc(N3CCCC3)cc2)cs1", "note": "[4i, 3-(2-Nitro-phenyl)-2-{[4-(4-pyrrolidin-1-yl-phenyl)-thiazol-2-yl]-hydrazono}-propionic acid]", "values": [{"measurement": "binding affinity / potency in FP assay compared with hit compound 1", "setting": "[1]", "result": "significantly less active"}, {"measurement": "GI50", "setting": "[2]; [14]", "result": "> 24", "unit": "µM"}]}, {"smiles": "O=C(O)C(Cc1ccccc1[N+](=O)[O-])=NNc1nc(-c2ccc(C3CCCCC3)cc2)cs1", "note": "[4g, 2-{[4-(4-Cyclohexyl-phenyl)-thiazol-2-yl]-hydrazono}-3-(2-nitro-phenyl)-propionic acid]", "values": [{"measurement": "cap-dependent translation (Renilla luciferase)", "setting": "[3]", "result": "Inhibition of cap-dependent translation; also recorded: inhibit dose-dependently; also recorded: more effective"}, {"measurement": "potency in FP assay compared with 4f", "setting": "[1]; relative to 4f", "result": 2, "unit": "fold"}, {"measurement": "IRES driven / cap-independent translation (firefly luciferase)", "setting": "[4]", "result": "enhance"}, {"measurement": "GI50", "setting": "[2]; HT29 or A549, at least one, read-out: GI50 in at least one cell line", "result": "< 10", "unit": "µM"}]}, {"smiles": "O=C(O)/C(Cc1ccccc1[N+](=O)[O-])=N/Nc1nc(-c2ccc(Cl)c(Cl)c2)cs1", "note": "[EGI-1, 2-{[4-(3,4-Dichloro-phenyl)-thiazol-2-yl]-hydrazono}-3-(2-nitro-phenyl)-propionic acid]", "values": [{"measurement": "effect on strong mRNAs such as β-actin (protein level)", "setting": "[5]", "result": "little or no effect"}, {"measurement": "production of proteins encoded by weak mRNAs (Bcl-xL, c-myc)", "setting": "[5]", "result": "inhibits the production"}, {"measurement": "GI50", "setting": "[6]", "result": 5, "unit": "µM"}, {"measurement": "apoptosis induction", "setting": "[7]", "result": "induces apoptosis; also recorded: pro-apoptotic activity"}, {"measurement": "sub-G1 fraction on co-treatment with zVAD-FMK", "setting": "[7]; 60 μM with 100 μM zVAD-FMK, 24 hours", "result": "suppressed"}, {"measurement": "nuclear morphology (Hoechst 33342)", "setting": "[7]; 60 μM, 24 hours", "result": "induces fragmented nuclear morphology"}, {"measurement": "sub-G1 fraction (fragmented DNA)", "setting": "[7]; 60 μM, 24 hours", "result": "induces DNA fragmentation; also recorded: large increase in the sub-G1 fraction"}, {"measurement": "cap-dependent translation (Renilla luciferase)", "setting": "[3]", "result": "inhibits cap-dependent translation; also recorded: inhibited in a dose-dependent manner; also recorded: inhibited translation of the cap-dependent luciferase"}, {"measurement": "cap-dependent translation (Renilla luciferase)", "setting": "[3]; listed as compound 1", "result": "inhibit dose-dependently"}, {"measurement": "cell viability (cellular ATP level)", "setting": "[8]", "result": "induces loss of cell viability; also recorded: dose-dependent loss of cell viability"}, {"measurement": "cytotoxicity (cell viability after compound treatment)", "setting": "[9]", "result": "No significant cytotoxicity"}, {"measurement": "IRES driven / cap-independent translation (firefly luciferase)", "setting": "[4]", "result": "does not inhibit; also recorded: not inhibited and in fact significantly enhanced; also recorded: enhanced translation from the CrPV IRES"}, {"measurement": "IRES driven / cap-independent translation (firefly luciferase)", "setting": "[4]; listed as compound 1", "result": "enhance"}, {"measurement": "IC50", "setting": "[10]; Homo sapiens, A549, FIG. 8A, read-out: IC50, anti-proliferative activity in A549 cells", "result": "~6", "unit": "µM"}, {"measurement": "proliferation of A549 cells (in words)", "setting": "[10]; SRB assay, five day growth period", "result": "inhibits proliferation"}, {"measurement": "transcriptional level, transport or stability of c-myc and Bcl-xL mRNA", "setting": "[11]", "result": "does not affect"}, {"measurement": "IC50", "setting": "[12]", "result": 9, "unit": "µM"}, {"measurement": "GI50", "setting": "[12]", "result": 9, "unit": "µM"}]}, {"smiles": "O=C(O)C(Cc1ccccc1)=NNc1nc(-c2ccccc2)cs1", "note": "[4b]", "values": [{"measurement": "cap-dependent translation (Renilla luciferase)", "setting": "[3]", "result": "Inhibition of cap-dependent translation"}, {"measurement": "IC50", "setting": "[13]", "result": "> 600", "unit": "µM"}, {"measurement": "GI50", "setting": "[10]; Table 1, sulforhodamine B assay, triplicate", "result": 4, "unit": "µM"}]}, {"smiles": "CC[C@H]1CN2CCc3cc(OC)c(OC)cc3[C@@H]2C[C@@H]1C[C@H]1NCCc2cc(OC)c(OC)cc21", "note": "[emetine, reference compound]", "values": [{"measurement": "cap-dependent translation (Renilla luciferase)", "setting": "[3]", "result": "inhibits translation of both messages equally well"}, {"measurement": "IRES driven / cap-independent translation (firefly luciferase)", "setting": "[4]", "result": "inhibits translation of both messages equally well"}]}, {"smiles": "O=C(O)C(Cc1ccccc1[N+](=O)[O-])=NNc1nc(-c2ccc3c(c2)OCCCO3)cs1", "note": "[4e, 2-{[4-(3,4-Dihydro-2H-benzo[b][1,4]dioxepin-7-yl)-thiazol-2-yl]-hydrazono}-3-(2-nitro-phenyl)-propionic acid]", "values": [{"measurement": "GI50", "setting": "[6]", "result": 24, "unit": "µM"}, {"measurement": "binding affinity / potency in FP assay compared with hit compound 1", "setting": "[1]", "result": "equipotent"}, {"measurement": "GI50", "setting": "[2]; [14]", "result": "> 24", "unit": "µM"}, {"measurement": "GI50", "setting": "[12]", "result": 45, "unit": "µM"}]}, {"smiles": "Cn1c[n+]([C@@H]2O[C@H](COP(=O)(O)OP(=O)([O-])O)[C@@H](O)[C@H]2O)c2nc(N)[nH]c(=O)c21", "note": "[m7GDP, reference compound]", "values": [{"measurement": "cap-dependent translation (Renilla luciferase)", "setting": "[3]", "result": "specifically inhibits the cap-dependent message"}]}, {"smiles": "O=C(O)C(Cc1ccccc1[N+](=O)[O-])=NNc1nc(-c2ccccc2)cs1", "note": "[4a]", "values": [{"measurement": "binding affinity / potency in FP assay compared with hit compound 1", "setting": "[1]", "result": "dramatic decrease"}, {"measurement": "growth inhibition of both cell lines compared with hit compound 1", "setting": "[2]; HT29 and A549", "result": "dramatic decrease"}]}]}
